# According to patent US8088918B2, “Noncardiotoxic pharmaceutical compounds” (Williamsburg Holdings LLC, priority 2004, dated 2012):
# How the values were obtained:
# [1] = Stability testing of prodrugs in human plasma; assay type: in vitro ADME; conditions: 10 μM, ca. 37° C.
# Experimental: (§1) Pooled human plasma was obtained from Bioreclamation (East Meadow, N.Y.) by collection into sodium EDTA as the anticoagulant, and was stored at ca −20° C. prior to use. Prior to use, the plasma defrosted and was spun at ca. 3000 rpm for 5 minutes to remove any precipitate. The pH of the plasma was adjusted to pH 7.4 by careful addition of NaH2PO4 buffer.
# (§2) Plasma stability was assessed by incubation of 10 μM of each compound prepared in Examples 1-5 with human plasma, in duplicate, at ca. 37° C. with shaking. Each compound prepared in Examples 1-5 was also incubated at 10 μM in PBS as a control for compound heat stability. Aliquots were removed at 0, 0.5, 1 and 2 hours and stored at −20° C. until analysis.
# (§3) For analysis, plasma samples were extracted in 1 part acetonitrile and isolation of the supernatant. Analysis of each compound prepared in Examples 1-5 in plasma extracts was conducted by an LC-MS method at each time interval and quantification was achieved by comparison of the response due to the sample to that of a three point standard curve. Appearance of the parent drug the hydroxymetabolites were also monitored at each time interval. The % degradation following incubation at each time point was calculated by comparison of the parent concentration to that at 0 minutes.
# [2] = Stability testing of prodrugs in rat plasma (elevated esterase activity); assay type: in vitro ADME, Sprague-Dawley rat; conditions: 10 μM, ca. 37° C.
# Experimental: as §1, with “Sprague-Dawley rat” for “Pooled human”, “obtained” for “obtained from Bioreclamation (East Meadow, N.Y.)”
# as §2, with “rat” for “human”
# as §3, with “drug and” for “drug”
# [3] = Metabolic stability, microsomal incubations without inhibitor; assay type: in vitro ADME; conditions: 10 μM, 0.5 mg/mL microsomal protein
# Experimental: (§4) The metabolic stability of each compound prepared in Examples 1-5 was assessed in microsomal preparations obtained from BD Gentest (Woburn, Mass.).
# (§5) The metabolic stability of each compound prepared in Examples 1-5 was assessed in duplicate by incubation of 10 μM compound with 0.5 mg/mL microsomal protein, 1 mM in 0.1 M phosphate buffer, pH 7.4 in the presence and absence of a CYP3A4 inhibitor (ketoconazole). The reaction mixture was pre-incubated, in the absence of the microsomes, at ca. 37° C. for 5 minutes, followed by initiation of the incubation by the addition of microsomal protein and maintained at ca. 37° C. for a further 0, 30 and 60 minutes. After the appropriate incubation time, the mixtures were quenched by the addition of one volume of acetonitrile and the supernatant was isolated by centrifugation. Positive control incubations (7-ethoxycoumarin) were performed in the same manner as the compounds from Examples 1-5 and quenched after 0 and 30 minutes. In addition, negative control incubations were performed for 60 minutes in the absence of NADPH to assess chemical stability.
# (§6) Analysis of supernatants from each time interval was conducted for each compound prepared in Examples 1-5 by LC-MS analysis. Quantification of the disappearance on the parent drug was achieved by comparison of the sample response to that of a suitable standard curve constructed in 0.1 M phosphate buffer, pH 7.4. The standard curve ranged between ≦1% up to ≧100% of the dosing concentration.
# (§7) The % turnover following 60 minutes of incubation was calculated by comparison of the parent concentration to that at 0 minutes. The % degradation was calculated in the same manner from the negative control incubations. Appearance of the parent drug and the hydroxymetabolites were also monitored at each time interval.
# [4] = Metabolic stability, microsomal incubations with ketoconazole (CYP3A4 inhibitor); assay type: in vitro ADME; conditions: 10 μM, 0.5 mg/mL microsomal protein
# Experimental: as §4, §5, §6, §7
# [5] = target: T1, recombinant human CYP3A4 (Homo sapiens, UniProt P08684); experiment: Metabolic stability in the presence of CYP3A4 isozyme; assay type: in vitro ADME; conditions: 10 μm compound
# T1 construct: purchased BD Gentest (Woburn, Mass.)
# Experimental: (§8) The metabolic stability of each compound prepared in Examples 1-5 was assessed in the presence of CYP2D6 and CYP3A4 obtained from BD Gentest (Woburn, Mass.).
# (§9) The metabolic stability of each compound prepared in Examples 1-5 was assessed in duplicate by incubation of 10 μm compound with recombinant human CYP2D6 and 3A4 using similar conditions to those in Example 9. Samples were removed for analysis at 0, 30 and 60 minutes and extracted with one volume of organic solvent. Appropriate controls were included. Quantification of the disappearance of the prodrug was conducted LC-MS. Appearance of metabolites was also monitored.
# [6] = target: CYP2D6 (Homo sapiens, UniProt P10635); experiment: Metabolic stability in the presence of CYP2D6 isozyme; assay type: in vitro ADME; parameters: purchased BD Gentest (Woburn, Mass.); conditions: 10 μm compound
# Experimental: as §8, §9
# [7] = Stability testing in simulated gastric fluids; conditions: 10 μM, saline pH approximately 1 plus pepsin
# [8] = Stability testing in simulated intestinal fluids; conditions: 10 μM
# [9] = human plasma; cited from earlier work
# [10] = parent drugs; cited from earlier work
# [11] = phosphate pH 6, incubation time 0 min
# [12] = phosphate pH 6, incubation time 30 min
# [13] = phosphate pH 6, incubation time 60 min
# [14] = phosphate pH 6, incubation time 120 min
# Chain of CYP2D6 (P10635 whole entry): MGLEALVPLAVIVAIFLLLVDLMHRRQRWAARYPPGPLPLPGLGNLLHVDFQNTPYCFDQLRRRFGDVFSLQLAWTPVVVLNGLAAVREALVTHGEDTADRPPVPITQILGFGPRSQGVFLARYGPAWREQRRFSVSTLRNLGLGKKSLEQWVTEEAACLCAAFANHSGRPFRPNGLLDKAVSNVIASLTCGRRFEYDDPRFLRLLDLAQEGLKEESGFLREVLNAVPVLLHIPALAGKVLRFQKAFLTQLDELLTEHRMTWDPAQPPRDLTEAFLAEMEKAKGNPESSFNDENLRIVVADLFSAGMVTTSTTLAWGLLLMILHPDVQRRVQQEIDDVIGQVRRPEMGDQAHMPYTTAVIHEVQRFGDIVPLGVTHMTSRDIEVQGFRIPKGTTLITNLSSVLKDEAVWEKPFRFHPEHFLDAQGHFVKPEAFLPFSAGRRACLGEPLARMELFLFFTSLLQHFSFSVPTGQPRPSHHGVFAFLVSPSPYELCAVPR
# T1 sequence (P08684 whole entry): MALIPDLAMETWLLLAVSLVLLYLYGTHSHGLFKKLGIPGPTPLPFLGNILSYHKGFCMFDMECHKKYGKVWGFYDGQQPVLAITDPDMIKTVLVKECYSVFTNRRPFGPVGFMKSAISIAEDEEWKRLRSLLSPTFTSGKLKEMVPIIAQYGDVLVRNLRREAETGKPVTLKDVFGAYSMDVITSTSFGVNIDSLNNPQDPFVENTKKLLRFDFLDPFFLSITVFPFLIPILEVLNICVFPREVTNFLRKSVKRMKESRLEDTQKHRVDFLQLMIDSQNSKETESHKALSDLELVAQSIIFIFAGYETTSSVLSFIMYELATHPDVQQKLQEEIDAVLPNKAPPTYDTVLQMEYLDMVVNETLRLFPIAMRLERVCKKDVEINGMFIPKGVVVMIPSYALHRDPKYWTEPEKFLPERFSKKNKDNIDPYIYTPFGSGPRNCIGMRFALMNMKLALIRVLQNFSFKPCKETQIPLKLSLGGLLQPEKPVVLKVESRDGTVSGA
Structure (SMILES),Loss of parent compound in human plasma (%) ([1]; incubation time 0 min),Loss of parent compound in human plasma (%) ([1]; incubation time 30 min),Loss of parent compound in human plasma (%) ([1]; incubation time 60 min),Loss of parent compound in human plasma (%) ([1]; incubation time 120 min),Loss of parent compound in rat plasma (%) ([2]; incubation time 0 min),Loss of parent compound in rat plasma (%) ([2]; incubation time 30 min),Loss of parent compound in rat plasma (%) ([2]; incubation time 60 min),Loss of parent compound in rat plasma (%) ([2]; incubation time 120 min),Loss of parent compound with no ketoconazole (%) ([3]; incubation time 30 min),Loss of parent compound with no ketoconazole (%) ([3]; incubation time 60 min),Loss of parent compound with ketoconazole (%) ([4]; incubation time 30 min),Loss of parent compound with ketoconazole (%) ([4]; incubation time 60 min),Loss of parent compound with CYP3A4 isozyme (%) ([5]; incubation time 0 min),Loss of parent compound with CYP3A4 isozyme (%) ([5]; incubation time 30 min),Loss of parent compound with CYP3A4 isozyme (%) ([5]; incubation time 60 min),Loss of parent compound with CYP2D6 isozyme (%) ([6]; incubation time 0 min),Loss of parent compound with CYP2D6 isozyme (%) ([6]; incubation time 30 min),Loss of parent compound in simulated gastric fluid (%) ([7]; incubation time 0 min),Loss of parent compound in simulated gastric fluid (%) ([7]; incubation time 30 min),"Loss of parent compound in simulated intestinal fluid (%) [8, 11]",also measured
"COC(=O)N(C)CCCN1c2ccccc2CCc2ccccc21 [RIC-5a, [3-(10,11-Dihydro-dibenzo[b,f]azepin-5-yl)-propyl]-methyl-carbamic acid methyl ester]",0.00%,5.47%,15.80%,26.22%,0.00%,8.81%,23.43%,45.85%,70.94%,87.25%,27.65%,62.37%,0.00%,91.32%,97.96%,0.00%,73.91%,0.00%,13.93%,0.00%,"Loss of parent compound with CYP2D6 isozyme (%) ([6]; incubation time 60 min): 83.13%; Loss of parent compound in simulated gastric fluid (%) ([7]; incubation time 60 min): 31.78%; Loss of parent compound in simulated gastric fluid (%) ([7]; incubation time 120 min): 81.43%; Loss of parent compound in simulated intestinal fluid (%) [8, 12]: 16.75%; Loss of parent compound in simulated intestinal fluid (%) [8, 13]: 22.88%; Loss of parent compound in simulated intestinal fluid (%) [8, 14]: 35.18%"
"CCCOC(=O)N(C)CCCN1c2ccccc2CCc2ccccc21 [RIC-5b, [3-(10,11-Dihydro-dibenzo[b,f]azepin-5-yl)-propyl]-methyl-carbamic acid propyl ester]",0.00%,7.15%,6.85%,21.06%,0.00%,7.17%,8.34%,23.42%,64.76%,82.29%,31.69%,50.21%,0.00%,92.32%,95.20%,0.00%,19.21%,0.00%,58.72%,0.00%,"Loss of parent compound with CYP2D6 isozyme (%) ([6]; incubation time 60 min): 28.01%; Loss of parent compound in simulated gastric fluid (%) ([7]; incubation time 60 min): 26.67%; Loss of parent compound in simulated gastric fluid (%) ([7]; incubation time 120 min): 94.37%; Loss of parent compound in simulated intestinal fluid (%) [8, 12]: 6.73%; Loss of parent compound in simulated intestinal fluid (%) [8, 13]: 13.57%; Loss of parent compound in simulated intestinal fluid (%) [8, 14]: 25.61%"
"CC(C)COC(=O)N(C)CCCN1c2ccccc2CCc2ccccc21 [RIC-5c, [3-(10,11-Dihydro-dibenzo[b,f]azepin-5-yl)-propyl]-methyl-carbamic acid isobutyl ester]",0.00%,5.11%,−1.48%,25.82%,0.00%,−14.69%,−2.88%,33.40%,54.01%,76.36%,6.36%,19.49%,0.00%,72.07%,90.69%,0.00%,43.71%,0.00%,70.64%,0.00%,"Loss of parent compound with CYP2D6 isozyme (%) ([6]; incubation time 60 min): 70.07%; Loss of parent compound in simulated gastric fluid (%) ([7]; incubation time 60 min): 82.77%; Loss of parent compound in simulated gastric fluid (%) ([7]; incubation time 120 min): 98.11%; Loss of parent compound in simulated intestinal fluid (%) [8, 12]: 1.05%; Loss of parent compound in simulated intestinal fluid (%) [8, 13]: 12.68%; Loss of parent compound in simulated intestinal fluid (%) [8, 14]: 21.78%"
"CCCCCCCCOC(=O)N(C)CCCN1c2ccccc2CCc2ccccc21 [RIC-5d, [3-(10,11-Dihydro-dibenzo[b,f]azepin-5-yl)-propyl]-methyl-carbamic acid octyl ester]",0.00%,−32.74%,−1.44%,49.54%,0.00%,−8.16%,41.70%,73.48%,59.12%,74.17%,15.18%,55.88%,0.00%,33.66%,60.64%,0.00%,18.68%,0.00%,13.84%,0.00%,"Loss of parent compound in simulated intestinal fluid (%) [8, 12]: 7.73%; Loss of parent compound in simulated intestinal fluid (%) [8, 13]: −8.72%; Loss of parent compound in simulated intestinal fluid (%) [8, 14]: 4.23%"
Fc1ccc([C@@H]2CCNC[C@H]2COc2ccc3c(c2)OCO3)cc1 [paroxetine],–,–,–,–,–,–,–,–,–,–,–,–,–,–,–,–,–,–,–,–,AUC(0-24) [9]: 96.5 ng·h/mL; Cmax [9]: 8.60 ng/mL; Tmax [9]: 5 (3-5) hours; pKa [10]: 9.90
